# ± gives the expanded uncertainty stated by the source.
# Assay: xn = mol fraction of the nth substance listed
# Conditions: Liquid, Vibrating tube method
smiles,measurement,setting,value
CC(C)=O [acetone] + CCCCCCC,mass density,"367.48 K, 69840 kPa, x1 = 0.8992",761.04 ± 1.4 kg/m3
same,mass density,"367.48 K, 74790 kPa, x1 = 0.7024",736.93 ± 1.5 kg/m3
same,mass density,"367.48 K, 74820 kPa, x1 = 0.4",764.83 ± 1.4 kg/m3
same,mass density,"367.48 K, 74820 kPa, x1 = 0.8992",764.83 ± 1.4 kg/m3
same,mass density,"367.48 K, 74880 kPa, x1 = 0.611",727.57 ± 1.5 kg/m3
same,mass density,"367.48 K, 79790 kPa, x1 = 0.4",768.48 ± 1.4 kg/m3
same,mass density,"367.48 K, 79790 kPa, x1 = 0.8992",768.48 ± 1.4 kg/m3
same,mass density,"367.48 K, 84760 kPa, x1 = 0.7024",743.91 ± 1.5 kg/m3
same,mass density,"367.48 K, 84780 kPa, x1 = 0.4",772.02 ± 1.5 kg/m3
same,mass density,"367.48 K, 84780 kPa, x1 = 0.8992",772.02 ± 1.4 kg/m3
same,mass density,"367.48 K, 84860 kPa, x1 = 0.611",734.42 ± 1.5 kg/m3
same,mass density,"367.48 K, 89740 kPa, x1 = 0.4",775.41 ± 1.5 kg/m3
same,mass density,"367.48 K, 89740 kPa, x1 = 0.8992",775.41 ± 1.5 kg/m3
same,mass density,"367.48 K, 89840 kPa, x1 = 0.611",737.67 ± 1.5 kg/m3
same,mass density,"367.48 K, 94810 kPa, x1 = 0.611",740.81 ± 1.6 kg/m3
same,mass density,"367.48 K, 99700 kPa, x1 = 0.4",781.91 ± 1.5 kg/m3
same,mass density,"367.48 K, 99700 kPa, x1 = 0.8992",781.91 ± 1.5 kg/m3
same,mass density,"367.48 K, 104670 kPa, x1 = 0.4",785.01 ± 1.5 kg/m3
same,mass density,"367.48 K, 104670 kPa, x1 = 0.8992",785.01 ± 1.5 kg/m3
same,mass density,"367.48 K, 104780 kPa, x1 = 0.611",746.78 ± 1.6 kg/m3
same,mass density,"367.48 K, 109630 kPa, x1 = 0.4",788.01 ± 1.6 kg/m3
same,mass density,"367.48 K, 109630 kPa, x1 = 0.8992",788.01 ± 1.5 kg/m3
same,mass density,"367.48 K, 114860 kPa, x1 = 0.611",752.48 ± 1.6 kg/m3
same,mass density,"367.48 K, 119560 kPa, x1 = 0.4",793.8 ± 1.6 kg/m3
same,mass density,"367.48 K, 119560 kPa, x1 = 0.8992",793.8 ± 1.6 kg/m3
same,mass density,"367.48 K, 119860 kPa, x1 = 0.611",755.19 ± 1.7 kg/m3
same,mass density,"367.48 K, 124530 kPa, x1 = 0.4",796.59 ± 1.6 kg/m3
same,mass density,"367.48 K, 124530 kPa, x1 = 0.8992",796.59 ± 1.6 kg/m3
same,mass density,"367.48 K, 129810 kPa, x1 = 0.4",799.46 ± 1.6 kg/m3
same,mass density,"367.48 K, 129810 kPa, x1 = 0.8992",799.46 ± 1.6 kg/m3
same,mass density,"367.49 K, 1150 kPa, x1 = 0.492",636.24 ± 1.2 kg/m3
same,mass density,"367.49 K, 1160 kPa, x1 = 0.801",665.36 ± 1.2 kg/m3
same,mass density,"367.49 K, 1370 kPa, x1 = 0.4",680.97 ± 1.2 kg/m3
same,mass density,"367.49 K, 1370 kPa, x1 = 0.8992",680.97 ± 1.2 kg/m3
same,mass density,"367.49 K, 4860 kPa, x1 = 0.801",672.53 ± 1.2 kg/m3
same,mass density,"367.49 K, 4870 kPa, x1 = 0.492",643.34 ± 1.2 kg/m3
same,mass density,"367.49 K, 4870 kPa, x1 = 0.611",651.91 ± 1.2 kg/m3
same,mass density,"367.49 K, 9840 kPa, x1 = 0.801",681.17 ± 1.2 kg/m3
same,mass density,"367.49 K, 9860 kPa, x1 = 0.492",651.84 ± 1.2 kg/m3
same,mass density,"367.49 K, 14860 kPa, x1 = 0.801",688.96 ± 1.2 kg/m3
same,mass density,"367.49 K, 14870 kPa, x1 = 0.492",659.41 ± 1.2 kg/m3
same,mass density,"367.49 K, 14880 kPa, x1 = 0.611",668.22 ± 1.2 kg/m3
same,mass density,"367.49 K, 19850 kPa, x1 = 0.801",696.01 ± 1.2 kg/m3
same,mass density,"367.49 K, 19860 kPa, x1 = 0.492",666.25 ± 1.3 kg/m3
same,mass density,"367.49 K, 24850 kPa, x1 = 0.801",702.51 ± 1.3 kg/m3
same,mass density,"367.49 K, 29860 kPa, x1 = 0.801",708.54 ± 1.3 kg/m3
same,mass density,"367.49 K, 34850 kPa, x1 = 0.492",683.77 ± 1.3 kg/m3
same,mass density,"367.49 K, 34860 kPa, x1 = 0.801",714.16 ± 1.3 kg/m3
same,mass density,"367.49 K, 34950 kPa, x1 = 0.4",729.18 ± 1.3 kg/m3
same,mass density,"367.49 K, 34950 kPa, x1 = 0.8992",729.18 ± 1.3 kg/m3
same,mass density,"367.49 K, 39860 kPa, x1 = 0.611",698.15 ± 1.3 kg/m3
same,mass density,"367.49 K, 44850 kPa, x1 = 0.492",693.62 ± 1.4 kg/m3
same,mass density,"367.49 K, 54840 kPa, x1 = 0.801",733.6 ± 1.4 kg/m3
same,mass density,"367.49 K, 59920 kPa, x1 = 0.611",716.21 ± 1.4 kg/m3
same,mass density,"367.49 K, 69900 kPa, x1 = 0.611",723.93 ± 1.4 kg/m3
same,mass density,"367.49 K, 79870 kPa, x1 = 0.611",731.07 ± 1.5 kg/m3
same,mass density,"367.49 K, 94730 kPa, x1 = 0.4",778.72 ± 1.5 kg/m3
same,mass density,"367.49 K, 94730 kPa, x1 = 0.8992",778.72 ± 1.5 kg/m3
same,mass density,"367.49 K, 99800 kPa, x1 = 0.611",743.84 ± 1.6 kg/m3
same,mass density,"367.49 K, 99840 kPa, x1 = 0.492",733.62 ± 1.6 kg/m3
same,mass density,"367.49 K, 104810 kPa, x1 = 0.492",736.49 ± 1.6 kg/m3
same,mass density,"367.49 K, 109800 kPa, x1 = 0.492",739.28 ± 1.6 kg/m3
same,mass density,"367.49 K, 109850 kPa, x1 = 0.611",749.68 ± 1.6 kg/m3
same,mass density,"367.49 K, 114600 kPa, x1 = 0.4",790.95 ± 1.6 kg/m3
same,mass density,"367.49 K, 114600 kPa, x1 = 0.8992",790.95 ± 1.5 kg/m3
same,mass density,"367.49 K, 114760 kPa, x1 = 0.492",742 ± 1.7 kg/m3
same,mass density,"367.49 K, 119830 kPa, x1 = 0.492",744.68 ± 1.7 kg/m3
same,mass density,"367.49 K, 124840 kPa, x1 = 0.492",747.26 ± 1.7 kg/m3
same,mass density,"367.49 K, 124860 kPa, x1 = 0.611",757.81 ± 1.7 kg/m3
same,mass density,"367.49 K, 129850 kPa, x1 = 0.492",749.77 ± 1.8 kg/m3
same,mass density,"367.49 K, 129850 kPa, x1 = 0.611",760.39 ± 1.7 kg/m3
same,mass density,"367.5 K, 24850 kPa, x1 = 0.492",672.52 ± 1.3 kg/m3
same,mass density,"367.5 K, 29850 kPa, x1 = 0.492",678.35 ± 1.3 kg/m3
same,mass density,"367.5 K, 39850 kPa, x1 = 0.801",719.44 ± 1.3 kg/m3
same,mass density,"367.5 K, 39860 kPa, x1 = 0.492",688.84 ± 1.3 kg/m3
same,mass density,"367.5 K, 44870 kPa, x1 = 0.801",724.43 ± 1.3 kg/m3
same,mass density,"367.5 K, 49850 kPa, x1 = 0.492",698.13 ± 1.4 kg/m3
same,mass density,"367.5 K, 49850 kPa, x1 = 0.801",729.14 ± 1.4 kg/m3
same,mass density,"367.5 K, 54850 kPa, x1 = 0.492",702.41 ± 1.4 kg/m3
same,mass density,"367.5 K, 59830 kPa, x1 = 0.801",737.85 ± 1.4 kg/m3
same,mass density,"367.5 K, 59870 kPa, x1 = 0.492",706.5 ± 1.4 kg/m3
same,mass density,"367.5 K, 64830 kPa, x1 = 0.492",710.35 ± 1.4 kg/m3
same,mass density,"367.5 K, 64930 kPa, x1 = 0.801",742.02 ± 1.4 kg/m3
same,mass density,"367.5 K, 69830 kPa, x1 = 0.492",714.07 ± 1.5 kg/m3
same,mass density,"367.5 K, 69910 kPa, x1 = 0.801",745.93 ± 1.4 kg/m3
same,mass density,"367.5 K, 74910 kPa, x1 = 0.801",749.67 ± 1.4 kg/m3
same,mass density,"367.5 K, 74930 kPa, x1 = 0.492",717.72 ± 1.5 kg/m3
same,mass density,"367.5 K, 79900 kPa, x1 = 0.801",753.27 ± 1.4 kg/m3
same,mass density,"367.5 K, 79920 kPa, x1 = 0.492",721.13 ± 1.5 kg/m3
same,mass density,"367.5 K, 84870 kPa, x1 = 0.801",756.74 ± 1.5 kg/m3
same,mass density,"367.5 K, 84880 kPa, x1 = 0.492",724.42 ± 1.5 kg/m3
